From patent US4340602A, “Compositions inhibiting estrogen sulfotransferase activity” (Wayne State University, priority 1978, dated 1982)
pKi: −log10 of the molar value. “And” between values parts separate entries of the source, which are not always exact repeats. Equal entries are not always repeated. Where two headings read alike, the source gives them in different places.

Assays:
[1] = molecular target: T1, Bovine Adrenal Estrogen Sulfotransferase (Bos taurus, UniProt P19217); assay: Inhibition of bovine adrenal estrogen sulfotransferase (estrone sulfurylation); type: biochemical
T1 construct: The enzyme was isolated from the bovine adrenals; from tissue; host or cells: bovine adrenals; purified by ammonium sulfate fractionation and chromatography on DEAE-cellulose or DEAE-Sephadex A-50
T1 sequence (P19217 1-295): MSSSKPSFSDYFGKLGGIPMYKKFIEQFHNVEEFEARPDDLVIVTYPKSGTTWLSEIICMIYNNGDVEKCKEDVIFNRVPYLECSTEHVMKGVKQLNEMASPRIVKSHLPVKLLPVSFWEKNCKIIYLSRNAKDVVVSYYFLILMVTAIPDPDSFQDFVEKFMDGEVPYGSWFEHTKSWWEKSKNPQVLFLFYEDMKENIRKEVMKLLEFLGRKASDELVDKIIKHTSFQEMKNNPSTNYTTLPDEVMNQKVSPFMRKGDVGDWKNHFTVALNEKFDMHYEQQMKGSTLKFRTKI
Procedure: Materials are evaluated for activity as estrogen sulfotransferase inhibitors by the method of Rozhin et al, Journal of Biological Chemistry, 252:7214-7220 (October 25, 1977), herein incorporated by reference.
Isolation of Estrogen Sulfotransferase (EC 2.8.2.4). The enzyme was isolated from the bovine adrenals and purified by ammonium sulfate fractionation and column chromatography on DEAE-cellulose or DEAE-SephadexA-50 [Rozhin et al (1974)].
Standard Enzyme Assay. The incubation mixtures contained the following in a total volume of 0.2 ml: 0.4 mM P-Ado-PS; 2 to 23 μM estrone (3-hydroxy-1,3,5(10)-estratriene-17-one), 5×10^5 dpm of [6,7-^3 H]estrone; 5 mM magnesium acetate; 0.19 M Tris/HCl buffer (pH 8.1 at 37°); 5 ug of the enzyme; and 25 μM dithiothreitol. After a 10-min incubation (in the presence of a constant amount of inhibitor and a variable amount of estrone), the boiled mixtures were supplemented with 5 μg of aqueous estrone sulfate. The remaining [^3 H]estrone was extracted three times with 0.3 ml of ethyl ether. The residual ether was removed and the volume adjusted to 0.5 ml with methanol. A sample (25 μl) was applied, together with 10 μg of methanolic estrone sulfate marker, to type SG chromatography media (Gelman Instrument Co., Ann Arbor, Mich.), and developed with chloroform/acetone/acetic acid (110:35:6). After drying the sheet, samples were visualized by spraying with methylene blue (25 mg in 100 ml of 0.05 N H2 SO4), punched out with a cork borer, and counted in 10 ml of dioxane counting liquid. A blank employing a boiled enzyme sample was incubated and the recorded counts were substracted from each determination. The total corrected counts, representing steroid sulfate ester, were converted to nanomoles utilizing the specific activity of [^3 H]estrone. An enzyme unit was defined as that quantity of enzyme which synthesized 1 nmol of estrone sulfate in 1 min under chosen conditions. […] When nonsubstrate steroids were used as the inhibitors, the procedure for the enzyme assay was as described earlier [Rozhin et al (1974)], utilizing 5 μg of enzyme, P-Ado-[^35 S]PS, and unlabeled estrone.
Data Processing. The initial velocity analysis was carried out keeping the concentration of P-Ado-PS at saturation level, varying the estrone concentration and keeping the concentration of the inhibitor at a fixed level. Preliminary plots of the data were made in the double reciprocal form (l/v versus l/[S]), and in the form of replots of slopes (and intercepts) versus inhibitor concentration. On the basis of these plots, the proper inhibition pattern was chosen for each experiment and the data points were fitted to the appropriate equation.
Linear competitive inhibition: [formula]
Hyperbolic competitive inhibition: [formula]
Slope-parabolic non-competitive inhibition: [formula]
All calculations were performed using Cleland's Fortran programs (Adv. Enzymol., 29:1-32). The programs gave the values of Km, Vmax, and inhibition constants.
Fractional Inhibition. From kinetic experiments, Ki was calculated as described above under "Data Processing" after making replots of slopes (and/or intercepts) versus inhibitor concentration. […] Substituting v and vi from the corresponding rate equations in the absence of (v=(Vmax [S])/(Km +[S])) and presence of a (competitive) inhibition (Equation 1), the following relationship for FI is obtained: [formula] After substituting [S], Km, and [I] (see above), the equation for the fractional (competitive) inhibition simplifies to: [formula] and the mathematical relationship between FI and Ki of competitive inhibitors is represented by the continuous curve in FIG. 2 in Rozhin et al., J. Biol. Chem., 252, 7214-7220, 1977. The dashed line represents the relationship between FI and the Ki of pure noncompetitive inhibition derived mathematically in an analogous manner and expressed as [formula] Since [I]=22.2 μM, [formula]

human endometrium = assay: Oxidation and sulfurylation of tritiated E2 by human endometrial curettings; type: in vitro ADME; details: 0.003 µM
Procedure: (§1) Radioisotopes. [6,7-^3 H]E2 and [2,4,6,7-^3 H]E2 were obtained from New England Nuclear Corp., Boston, Mass., and purified on ITLC-SA (Gelman Instrument Co.) with CHCl3 :CH3 OH (97:3) as the developing solvent. Na2^35 SO4 was obtained from New England Nuclear Corp. and used directly from the bottle.
(§2) Human endometria. Endometrial specimens (60-1500 mg) were gathered from the operating room at the time of surgery and placed in 0.9% saline solution on ice. Most patients (22) were young women undergoing tubal ligations for the purpose of sterilization, two patients were having IUD's removed and eight patients (hysterectomies and laparoscopies) had normal endometria upon histological examination. All had had at least one pregnancy, had no endocrine problems, were cycling normally and were not taking any drugs, except for two patients on Librium® and two on Aldoril®. Ages ranged from 23 to 48 years, the average being 31±5 years.
(§3) Metabolism. Amounts varying from 55 to 400 mg of endometrium were incubated in 2.5 ml of modified bicarbonate buffer with 10 μl of [6,7-^3 H]E2 (3×10^-9 M) and 100 μl of Na2^35 SO4 (1×10^-4 M). The remainder of the procedure was the same as described for gilt uterus in Example 2

[2] = as above; type: in vitro ADME; details: human, endometrium, Table IV, 2 h, 3×10^-9 M E2
Procedure: as §1, §2, §3

With `C[C@]12CC[C@@H]3c4ccc(O)cc4CC[C@H]3[C@@H]1CC[C@@H]2O` [1,3,5(10)Estratriene-3,17β-diol] the pKi ([1]; inhibitors 3 to 6, 12 and 16, from kinetic experiments, read-out: Ki (Table I), determined experimentally) was 5.21, the inhibition at 22.2 µM ([1]; pH 8.1, read-out: Fractional Inhibition (Table I)) was 68% and the “Percent of tritiated E2 sulfurylated, proliferative” value (human endometrium; Table IV, proliferative days 4-7, 55, 118, 329 mg tissue by row, 2 h, 3×10^-9 M E2) was 0%. For the same compound, the “Percent of tritiated E2 oxidized to estrone, proliferative” value (human endometrium; Table IV, proliferative days 4-7, 55, 118, 329 mg tissue by row, 2 h, 3×10^-9 M E2, listed as E2, 120 min) was 47% and 45%, the “Percent of tritiated E2 oxidized to estrone (E1 + E1 sulfate), secretory” value (human endometrium; Table IV, secretory day 24, 60, 120, 300 mg tissue by row, 2 h, 3×10^-9 M E2, listed as E2, 120 min) was 82% and the “oxidation of labeled E2 to E1 plus E1 sulfate, days 14 and 15” value (human endometrium; same three endometrial curettings, days 14 and 15, listed as E2, 0.003 µM) was 70% and 75% and 93%. The metabolised at 2 h, 0.003 µM ([2]; proliferative days 4-7, 55, 118, 329 mg tissue by row, read-out: Percent of tritiated E2 oxidized to estrone, proliferative) was 29% and the metabolised at 2 h, 0.003 µM ([2]; secretory day 24, 60, 120, 300 mg tissue by row, read-out: Percent of tritiated E2 oxidized to estrone (E1 + E1 sulfate), secretory) was 78%.
